From US9884806B2, “Cyclic vinylogous amides as bromodomain inhibitors” (ICAHN SCHOOL OF MEDICINE AT MOUNT SINAI, priority 2013, dated 2018) come the findings set out here.

Experiment [1] has as its target T1, first bromodomain (BrD1) of human BRD4 (Homo sapiens, UniProt O60885).
T1 construct: the first bromodomain (BrD1) of human BRD4; poly-His (cleaved yes); made in house
Nature of the experiment: Fluorescence anisotropy binding assay (competition with FITC-labeled MS417 probe). The note with it: FITC-MS417 probe 80 nM, PBS pH 7.4, 1 hour, 25° C., read-out: BRD4_1 IC50. The method, then: Fluorescence Anisotropy Binding Assay
Expression and purification of the first bromodomain (BrD1) of human BRD4 in poly-His tag form was performed using a procedure described in the literature [See Zeng et al. Structure 16, 643-652 (2008) and Zhang et al., J Biol Chem 287, 28840-28851 (2012).] The protein was purified by using affinity chromatography on a nickel-IDA column (Invitrogen), followed by the removal of poly-His tag by thrombin cleavage.
Binding affinity of the newly synthesized compounds to the BRD4 BrD1 was assessed in a fluorescence anisotropy assay using a fluorescein isothiocyanate (FITC)-labeled MS417 as an assay probe (Zhang et al. 2008 op.cit.). Competition binding was performed with a BrD protein (0.25 to 1 μM) and the fluorescent probe (80 nM), and increasing concentration of unlabeled competing ligand in a PBS buffer (pH 7.4) in total volume of 80 μL. Measurements were obtained after 1 hour incubation of the fluorescent ligand and the protein at 25° C. with Safire 2 microplate reader (Tecan). In the assay, fluorescent ligand concentration was ≦2Kd, and protein concentration was set at which 50-80% of fluorescent ligand is bound. Dissociation constant of a competing ligand was calculated with the correction to Cheng-Prussoff equation introduced by Nicolovska-Coleska and colleagues [Nikolovska-Coleska, Z. et al., Anal Biochem 332, 261-273 (2004). Assuming one-site competitive binding model, the equation used to calculate Ki's from IC50 values recovered from fitting data using Prism:
[formula] where [I50] is the concentration of free inhibitor at 50% inhibition, [L50], the concentration of free labeled ligand at 50% inhibition, and [P0], concentration of free protein at 0% inhibition. Note that Kd for each protein-probe pair is the limit of resolvable Ki in a competition assay.

The target of the next experiment is T2, BRD4_2 (Homo sapiens, UniProt O60885).
T2 construct: contains two tandem bromodomains (BrD1 and BrD2)
Nature of the experiment: Fluorescence anisotropy binding assay (competition with FITC-labeled MS417 probe), BRD4_2. As to conditions: FITC-MS417 probe 80 nM, PBS pH 7.4, 1 hour, 25° C. A general note: Fluorescence polarisation rises when a labelled molecule tumbles more slowly, as on binding a larger partner.

SMILES strings stand for the structures. Bounds are passed on as bounds.

As a reminder, the IC50 is the point on the concentration scale where inhibition reaches its midpoint. Consider `CC1=C(Nc2cccc(C(=O)Nc3ccccc3F)c2)CCC1=O` [Example 04-8], for which the IC50 (in experiment [1]; at BRD4_2) was 1 to 10 µM each time.

Take `CNC(=O)c1ccc(NC2=C(C)C(=O)CC2)c(Cl)c1` [Example 04-13, 3-chloro-N-methyl-4-((2-methyl-3-oxocyclopent-1-en-1-yl)amino)benzamide]: the half-inhibitory concentration (IC50) (in experiment [1]; at BRD4_2) was 1 to 10 µM in each case.

As to `CC1=C(Nc2ccc(C(=O)NC3CCCCC3)cc2Cl)CCC1=O` [Example 04-14, 3-chloro-N-cyclohexyl-4-((2-methyl-3-oxocyclopent-1-en-1-yl)amino)benzamide], the 50% inhibitory concentration (IC50) was under 1 µM in experiment [1] and 1 to 10 µM at BRD4_2.

As to `CC1=C(Nc2ccc(C(=O)Nc3ccccc3)cc2Cl)CCC1=O` [Example 04-16, 3-chloro-4-((2-methyl-3-oxocyclopent-1-en-1-yl)amino)-N-phenylbenzamide], the IC50 (in experiment [1]; at BRD4_2) was 1 to 10 µM each time.

Take `COc1cccc(NC(=O)c2ccc(NC3=C(C)C(=O)CC3)c(Cl)c2)c1` [Example 04-18, 3-chloro-N-(3-methoxyphenyl)-4-((2-methyl-3-oxocyclopent-1-en-1-yl)amino)benzamide]: the half-maximal inhibitory concentration (IC50) in experiment [1] is under 1 µM; at BRD4_2, 1 to 10 µM.

Take `CC1=C(Nc2ccc(C(=O)Nc3cccc(C)c3)cc2Cl)CCC1=O` [Example 04-21, 3-chloro-4-((2-methyl-3-oxocyclopent-1-en-1-yl)amino)-N-(m-tolyl)benzamide]: the values for the IC50 (in experiment [1]; on BRD4_2) were under 1 µM and 1 to 10 µM, respectively.

Regarding `CC1=C(Nc2ccc(C(=O)Nc3ccc(C)cc3)cc2Cl)CCC1=O` [Example 04-22, 3-chloro-4-((2-methyl-3-oxocyclopent-1-en-1-yl)amino)-N-(p-tolyl)benzamide], the concentration for half-maximal inhibition (IC50) (in experiment [1]; on BRD4_2) was 1 to 10 µM in each case.

Consider `CC1=C(N[C@H]2CC[C@H](C(=O)Nc3ccccc3)CC2)CCC1=O` [Example 04-26, (1R,4R)-4-((2-methyl-3-oxocyclopent-1-en-1-yl)amino)-N-phenylcyclohexane-carboxamide], for which the IC50 (in experiment [1]; on BRD4_2) was over 10 µM each time.

In the case of `CC1=C(N[C@H]2CC[C@H](C(=O)Nc3ccccc3C)CC2)CCC1=O` [Example 04-30, (1R,4R)-4-((2-methyl-3-oxocyclopent-1-en-1-yl)amino)-N-(o-tolyl)cyclohexanecarboxamide], the IC50 (in experiment [1]; at BRD4_2) was over 10 µM each time.

As for `CC1=C(N[C@H]2CC[C@H](C(=O)Nc3ccc(C)cc3)CC2)CCC1=O` [Example 04-32, (1R,4R)-4-((2-methyl-3-oxocyclopent-1-en-1-yl)amino)-N-(p-tolyl)-cyclohexanecarboxamide], the IC50 (in experiment [1]; at BRD4_2) was over 10 µM in each case.

As to `CC1=C(N[C@H]2CC[C@@H](C(=O)Nc3ccccc3)CC2)CCC1=O` [Example 04-36, (1S,4S)-4-((2-methyl-3-oxocyclopent-1-en-1-yl)amino)-N-phenylcyclohexane-carboxamide], the IC50 (in experiment [1]; on BRD4_2) was over 10 µM in each case.

Regarding `CC1=C(N[C@H]2CC[C@@H](C(=O)Nc3ccc(C)cc3)CC2)CCC1=O` [Example 04-40], the concentration for half-maximal inhibition (IC50) (in experiment [1]; on BRD4_2) was over 10 µM in each case.

As to `CC1=C(Nc2ccc(C(=O)NC3CCCCC3)c(Cl)c2)CCC1=O` [Example 04-43, 2-chloro-N-cyclohexyl-4-((2-methyl-3-oxocyclopent-1-en-1-yl)amino)benzamide], the IC50 (in experiment [1]; on BRD4_2) was over 10 µM throughout.

As for `CC1=C(Nc2ccc(C(=O)Nc3cccc4ccccc34)c(Cl)c2)CCC1=O` [Example 04-44, 2-chloro-4-((2-methyl-3-oxocyclopent-1-en-1-yl)amino)-N-(naphthalen-1-yl)-benzamide], the IC50 in experiment [1] is 1 to 10 µM; on BRD4_2, over 10 µM.

As for `CC1=C(Nc2ccc(C(=O)Nc3ccccc3)c(Cl)c2)CCC1=O` [Example 04-45, 2-chloro-4-((2-methyl-3-oxocyclopent-1-en-1-yl)amino)-N-phenylbenzamide], the 50% inhibitory concentration (IC50) (in experiment [1]; on BRD4_2) was over 10 µM throughout.

On to `COc1ccccc1NC(=O)c1ccc(NC2=C(C)C(=O)CC2)cc1Cl` [Example 04-46, 2-chloro-N-(2-methoxyphenyl)-4-((2-methyl-3-oxocyclopent-1-en-1-yl)amino)benzamide], for which the values for the IC50 (in experiment [1]; on BRD4_2) were 1 to 10 µM and over 10 µM, respectively.

`COc1cccc(NC(=O)c2ccc(NC3=C(C)C(=O)CC3)cc2Cl)c1` [Example 04-47, 2-chloro-N-(3-methoxyphenyl)-4-((2-methyl-3-oxocyclopent-1-en-1-yl)amino)benzamide]: the IC50 (in experiment [1]; on BRD4_2) was over 10 µM throughout.

Regarding `COc1ccc(NC(=O)c2ccc(NC3=C(C)C(=O)CC3)cc2Cl)cc1` [Example 04-48, 2-chloro-N-(4-methoxyphenyl)-4-((2-methyl-3-oxocyclopent-1-en-1-yl)amino)-benzamide], the IC50 (in experiment [1]; at BRD4_2) was 1 to 10 µM each time.

Regarding `CC1=C(Nc2ccc(C(=O)Nc3ccccc3C)c(Cl)c2)CCC1=O` [Example 04-49, 2-chloro-4-((2-methyl-3-oxocyclopent-1-en-1-yl)amino)-N-(o-tolyl)benzamide], the IC50 in experiment [1] was 1 to 10 µM; on BRD4_2, over 10 µM.

`CC1=C(Nc2ccc(C(=O)Nc3cccc(C)c3)c(Cl)c2)CCC1=O` [Example 04-50, 2-chloro-4-((2-methyl-3-oxocyclopent-1-en-1-yl)amino)-N-(m-tolyl)benzamide]: the IC50 (in experiment [1]; at BRD4_2) was over 10 µM in each case.

For `CC1=C(Nc2ccc(C(=O)Nc3ccc(C)cc3)c(Cl)c2)CCC1=O` [Example 04-51, 2-chloro-4-((2-methyl-3-oxocyclopent-1-en-1-yl)amino)-N-(p-tolyl)benzamide], the IC50 (in experiment [1]; at BRD4_2) was over 10 µM in each case.

Regarding `CC1=C(Nc2ccc(C(=O)Nc3cccc(F)c3)c(Cl)c2)CCC1=O` [Example 04-52, 2-chloro-N-(3-fluorophenyl)-4-((2-methyl-3-oxocyclopent-1-en-1-yl)amino)-benzamide], the IC50 (in experiment [1]; at BRD4_2) was over 10 µM in each case.

For `CNC(=O)c1ccc(NC2=C(C)C(=O)CC2)c(OC)c1` [Example 04-53, 3-methoxy-N-methyl-4-((2-methyl-3-oxocyclopent-1-en-1-yl)amino)benzamide], the IC50 (in experiment [1]; at BRD4_2) was 1 to 10 µM throughout.

With `COc1cc(C(=O)NC2CCCCC2)ccc1NC1=C(C)C(=O)CC1` [Example 04-54, N-cyclohexyl-3-methoxy-4-((2-methyl-3-oxocyclopent-1-en-1-yl)amino)-benzamide], the IC50 (in experiment [1]; at BRD4_2) was 1 to 10 µM throughout.

As to `COc1cc(C(=O)Nc2cccc3ccccc23)ccc1NC1=C(C)C(=O)CC1` [Example 04-55, 3-methoxy-4-((2-methyl-3-oxocyclopent-1-en-1-yl)amino)-N-(naphthalen-1-yl)-benzamide], the IC50 (in experiment [1]; on BRD4_2) was 1 to 10 µM in each case.

For `COc1cc(C(=O)Nc2ccccc2)ccc1NC1=C(C)C(=O)CC1` [Example 04-56, 3-methoxy-4-((2-methyl-3-oxocyclopent-1-en-1-yl)amino)-N-phenylbenzamide], the IC50 (in experiment [1]; on BRD4_2) was 1 to 10 µM throughout.
